Reference: US9932324B2, “Substituted benzimidazolium compounds useful in the treatment of respiratory diseases” (Boehringer Ingelheim International GmbH, priority 2015, dated 2018)

Key:
[1] = target: T1, ENaC (Epithelial Sodium Channel) in mouse kidney M-1 cells (Mus musculus, UniProt Q61180+Q9WU38+Q9WU39); test: Ussing Chamber assay (short circuit current, amiloride sensitive I_SC); format: cell-based; conditions: apical administration, 37° C.
T1 construct: Mouse kidney M-1 cells were cultivated in DMEM containing 5% FCS and 5 μM dexamethasone; endogenous in cells; host or cells: mouse kidney M-1 cells
T1 sequence (Q61180 1-699): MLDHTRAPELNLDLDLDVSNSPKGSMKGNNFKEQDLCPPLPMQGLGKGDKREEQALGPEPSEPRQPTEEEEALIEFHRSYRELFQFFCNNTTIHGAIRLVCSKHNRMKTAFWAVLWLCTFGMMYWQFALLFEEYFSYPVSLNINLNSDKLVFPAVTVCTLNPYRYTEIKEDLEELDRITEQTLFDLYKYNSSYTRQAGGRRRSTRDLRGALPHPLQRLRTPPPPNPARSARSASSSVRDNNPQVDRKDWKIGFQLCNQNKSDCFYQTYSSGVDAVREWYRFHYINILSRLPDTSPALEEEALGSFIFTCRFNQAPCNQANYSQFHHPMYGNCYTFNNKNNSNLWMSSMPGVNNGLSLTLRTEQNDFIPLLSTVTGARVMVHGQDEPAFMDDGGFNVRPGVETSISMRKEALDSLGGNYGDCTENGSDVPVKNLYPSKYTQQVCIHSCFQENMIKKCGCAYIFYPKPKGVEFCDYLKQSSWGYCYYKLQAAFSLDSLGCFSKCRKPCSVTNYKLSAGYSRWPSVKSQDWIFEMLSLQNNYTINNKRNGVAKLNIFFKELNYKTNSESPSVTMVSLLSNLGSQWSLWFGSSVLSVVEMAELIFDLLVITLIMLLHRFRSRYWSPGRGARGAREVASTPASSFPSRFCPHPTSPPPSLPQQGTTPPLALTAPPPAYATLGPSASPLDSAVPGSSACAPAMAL
T1 sequence (Q9WU38 1-638): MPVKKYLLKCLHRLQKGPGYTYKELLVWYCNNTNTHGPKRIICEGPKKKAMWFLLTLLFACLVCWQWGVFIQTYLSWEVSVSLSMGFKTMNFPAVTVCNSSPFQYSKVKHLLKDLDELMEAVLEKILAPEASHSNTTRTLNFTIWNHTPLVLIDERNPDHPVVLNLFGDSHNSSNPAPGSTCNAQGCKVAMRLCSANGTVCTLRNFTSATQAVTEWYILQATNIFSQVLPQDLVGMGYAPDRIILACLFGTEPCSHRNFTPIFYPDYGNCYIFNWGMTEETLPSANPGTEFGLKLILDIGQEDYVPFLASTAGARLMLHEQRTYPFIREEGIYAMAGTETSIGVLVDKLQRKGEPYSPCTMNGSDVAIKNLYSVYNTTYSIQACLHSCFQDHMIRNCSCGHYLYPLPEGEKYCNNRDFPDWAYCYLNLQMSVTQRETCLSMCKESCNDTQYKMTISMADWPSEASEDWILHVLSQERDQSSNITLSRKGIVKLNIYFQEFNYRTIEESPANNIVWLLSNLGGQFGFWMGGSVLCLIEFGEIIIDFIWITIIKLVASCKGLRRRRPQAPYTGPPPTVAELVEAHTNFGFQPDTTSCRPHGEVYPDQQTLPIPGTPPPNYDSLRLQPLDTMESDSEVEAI
T1 sequence (Q9WU39 1-655): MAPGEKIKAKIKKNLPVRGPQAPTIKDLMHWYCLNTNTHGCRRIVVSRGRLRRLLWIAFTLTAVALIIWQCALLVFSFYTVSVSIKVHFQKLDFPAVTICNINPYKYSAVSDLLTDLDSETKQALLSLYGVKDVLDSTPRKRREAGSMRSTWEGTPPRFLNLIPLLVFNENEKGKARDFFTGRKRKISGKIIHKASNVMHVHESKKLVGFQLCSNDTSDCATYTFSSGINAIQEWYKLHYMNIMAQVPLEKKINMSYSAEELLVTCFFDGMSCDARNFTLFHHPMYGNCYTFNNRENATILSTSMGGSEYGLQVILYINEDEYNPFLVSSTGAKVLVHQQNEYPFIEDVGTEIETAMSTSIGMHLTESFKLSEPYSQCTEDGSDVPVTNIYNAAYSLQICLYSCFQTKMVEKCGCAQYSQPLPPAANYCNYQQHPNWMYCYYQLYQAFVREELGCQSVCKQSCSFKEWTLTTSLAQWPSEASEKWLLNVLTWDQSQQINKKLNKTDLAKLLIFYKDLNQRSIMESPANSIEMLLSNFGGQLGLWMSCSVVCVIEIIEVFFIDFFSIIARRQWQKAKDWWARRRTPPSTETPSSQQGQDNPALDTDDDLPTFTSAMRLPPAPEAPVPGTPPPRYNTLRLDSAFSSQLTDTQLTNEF
Method: The IC50 values of the example compounds given above were determined in the Ussing Chamber assay.
Ussing Chamber: Mouse kidney M-1 cells were cultivated in DMEM containing 5% FCS and 5 μM dexamethasone for 10 to 12 days on polyester transwell filters. Filters were inserted into a teflon-coated well-plate which fit into the ussing chamber system. Prior to measurement the medium of M-1 cells was replaced with Caco-2 transport buffer (Invitrogen, Germany). During measurements, the Ussing chamber temperature was kept at 37° C. Short circuit currents (I_sc) were measured in the voltage-clamp mode with the software package Lab View for data acquisition and analysis. The transepithelial electrical resistance (TEER) was determined by the application of voltage steps of ±5 mV every 5 sec. Compounds were administered at a final concentration of 3 μM or at increasing concentrations (1-3-10 μM) to the apical solution. At the end of each experiment the amiloride sensitive I_SC was measured by adding 3 μM amiloride to the apical compartment. Results are expressed as inhibition in percent of the amiloride effect or as IC50.

[2] = Permeability in CALU-3 cells; format: in vitro ADME; conditions: human, CALU-3 monolayers, pH 7.4, 37° C., 10 μM compound; for Papp A→B at 90 min, 10 μM: apical-to-basal; for Papp B→A at 90 min, 10 μM: basal-to-apical
Method: Permeability in CALU-3 Cells:
Permeability measurements across polarized, confluent CALU-3 cell monolayers grown on permeable filter supports are used to provide information on the potential of a compound to pass the lung epithelium. Apparent permeability coefficients (Papp) of the compounds across the CALU-3 cell monolayers are measured (pH 7.4, 37° C.) in apical-to-basal (AB) and basal-to-apical (BA) transport direction.
CALU-3 cells (1-2×10^5 cells/1 cm^2 area) are seeded on filter inserts (Costar transwell polycarbonate filters, 0.4 μm pore size) and cultured (for 10-12 days DMEM) until tight monolayers are formed. Compounds of interest are dissolved in appropriate solvent (DMSO, 10 mM stock solution). Stock solutions are diluted with HTP-4 buffer (128.13 mM NaCl, 5.36 mM KCl, 1 mM MgSO4, 1.8 mM CaCl2, 4.17 mM NaHCO3, 1.19 mM Na2HPO4 x 7H2O, 0.41 mM NaH2PO4xH2O, 15 mM HEPES, 20 mM glucose, 0.25% BSA, pH 7.4) to prepare the transport solutions (10 μM compound, final DMSO <=0.5%). The transport solution (TL) is applied to the apical or basolateral donor side for measuring A-B or B-A permeability (3 filter replicates), respectively. The receiver side contains the same buffer as the donor side. After 30 min of accommodation, samples are collected at the start t0=0 min and at the end of the experiment tn=90 min from the donor and at 0, 30, 60, and 90 min also from the receiver chamber. Volume removed is […] by HTP-4 buffer. The compound concentration in the samples is measured by HPLC-MS/MS or scintillation counting. The permeability coefficient (Papp) and efflux ratio are calculated according to: Papp [cm/s]=(concentration receiver [nM]*volume receiver [mL]/time interval [sec])*(1/filter area)*(1/donor concentration [nM]).

SMILES | IC50 [1] [nM] | Papp A→B at 90 min, 10 μM [2] [×10⁻⁶ cm/s] | Papp B→A at 90 min, 10 μM [2] [×10⁻⁶ cm/s]
CC[n+]1c(CNC(=O)c2nc(Cl)c(N)nc2N)n(C[C@@H]2CCCO2)c2cccc(OCC(=O)N3C[C@H](O)[C@@H](O)C3)c21 [Example 1.01] | 36 |  | 
CC[n+]1c(CNC(=O)c2nc(Cl)c(N)nc2N)n(C[C@@H]2CCCO2)c2cccc(OCC(=O)N(C)Cc3nc(C)ccc3[O-])c21 [Example 1.03] | 31 | 0.3 | 0.5
CC[n+]1c(CNC(=O)c2nc(Cl)c(C)nc2N)n(C[C@@H]2CCCO2)c2cccc(OCC(=O)NC3CCN(C(=O)OC(C)(C)C)CC3)c21 [Example 1.07] | 2 |  | 
CC[n+]1c(CNC(=O)c2nc(Br)c(N)nc2N)n(C[C@@H]2CCCO2)c2cccc(OCC(=O)N3C[C@H](O)[C@@H](O)C3)c21.O=C([O-])C(F)(F)F [Example 2.01] | 24 | 0.2 | 0.2
CCn1c(CNC(=O)c2nc(Cl)c(N)nc2N)[n+](CC)c2c(C(=O)N(C)Cc3nc(C)ccc3O)cccc21 [Example 3.01] | 2 |  | 
CCn1c(CNC(=O)c2nc(Cl)c(N)nc2N)[n+](CC)c2c(C(=O)NC3CCN(C(=O)OC(C)(C)C)CC3)cccc21 [Example 3.02] | 3 |  | 
CCn1c(CNC(=O)c2nc(Cl)c(N)nc2N)[n+](CC)c2c(C(=O)NCCCNC(=O)OC(C)(C)C)cccc21 [Example 3.03] | 5 |  | 
CCn1c(CNC(=O)c2nc(Cl)c(N)nc2N)[n+](CC)c2c(C(=O)N3CCN(C(=O)OC(C)(C)C)CC3)cccc21 [Example 3.04] | 3 |  | 
CCn1c(CNC(=O)c2nc(Cl)c(N)nc2N)[n+](CC)c2c(C(=O)NCCN(C)C)cccc21.[Cl-] [Example 3.05] | 6 | 0.04 | 0.06
CC[n+]1c(CNC(=O)c2nc(Cl)c(N)nc2N)n(C[C@@H]2CCCO2)c2cccc(OCC(=O)NC3CCNCC3)c21.O=C(O)C(F)(F)F.O=C([O-])C(F)(F)F [Example 4.01] | 1 | 0.3 | 0.3
CCn1c(CNC(=O)c2nc(Cl)c(N)nc2N)[n+](CC)c2c(C(=O)N3CCNCC3)cccc21.[Cl-] [Example 4.02] | 3 | 0.2 | 0.1
CCn1c(CNC(=O)c2nc(Cl)c(N)nc2N)[n+](CC)c2c(C(=O)NC3CCNCC3)cccc21.[Cl-] [Example 4.03] | 5 | 0.08 | 0.1
CC[n+]1c(CNC(=O)c2nc(Cl)c(N)nc2N)n(CCOCCO)c2cccc(OC(CO)CO)c21 [Example 5.01] | 16 |  | 
CCn1c(CNC(=O)c2nc(Cl)c(N)nc2N)[n+](CC)c2c(C(=O)NCCCN)cccc21.Cl.[Cl-] [Example 6.01] | 5 | 0.1 | 0.09
CC[n+]1c(CNC(=O)c2nc(Cl)c(N)nc2N)n(CCOCCO)c2cccc(OCC(=O)NC3CCNCC3)c21 [Example 7.01] | 11 |  | 
